In patent US20260027239A1, “cRGD -CONJUGATED IMAGING AGENT” (Curadel Surgical Innovations, Inc., priority 2022, published 2026):

How the values were obtained:
[1] = Stability in warm buffered fetal bovine serum (normalized absorbance and absorbance spectra over time); assay type: in vitro ADME; conditions: 37° C. buffered FBS
Method: The normalized absorbance of ZW800-1 and ZW700-1c in 37° C. buffered FBS, pH 7.4 over time from 0 to 60 hours are shown in FIGS. 2-4.

[2] = Stability of cRGD in serum; assay type: in vitro ADME

SMILES	stability, changes in absorption spectra during metabolism in warm serum ([1]; pH 7.4, 0 to 48 hours, compared to ZW800-1 (FIGS. 5-6))	stability, normalized absorbance over time ([1]; pH 7.4, 0 to 60 hours, compared to ZW800-1 (FIGS. 2-4))	stability in serum [2]
CC1(C)C(/C=C/C(=C/C=C2/N(CCC[N+](C)(C)C)c3ccc(S(=O)(=O)[O-])cc3C2(C)C)c2ccc(CCC(=O)[O-])cc2)=[N+](CCC[N+](C)(C)C)c2ccc(S(=O)(=O)[O-])cc21 [ZW700-1c]	high stability	extreme stability	
N=C(N)NCC[C@@H]1NC(=O)[C@H](CCCCN)NC(=O)[C@@H](Cc2ccc(O)cc2)NC(=O)[C@H](C(=O)O)NC(=O)CNC1=O [cRGD]			stable in serum for days
